{"source": "patent US11123398B2", "about": "“Chemotherapeutic combinations of cationic antimicrobial peptides and chemotherapeutics” (LYTIX BIOPHARMA AS, priority 2014, dated 2021)", "key": {"[1]": {"system": "CT26WT colon carcinoma cells", "test": "Re-challenge with CT26WT colon carcinoma in mice with complete regression", "type": "in vivo, Balb-c mice", "details": "of 9 mice previously treated with 0.5 or 1 mg", "experimental": "Methods: Female Balb-c mice (n=4), previously treated with LTX-315, 1 mg) or (n=9); previously treated with LTX-315 0.5 or 1 mg) were re-inoculated (s.c. in the abdominal area) with either murine A20 B cell lymphoma cells or CT26WT colon carcinoma cells (5 million) respectively 6 weeks following initial treatment with LTX-315. Tumour growth was monitored for up to 36 days following re-inoculation."}, "[2]": {"system": "murine A20 B-cell lymphoma", "test": "Murine A20 B-cell lymphoma tumours in mice, dose levels", "type": "in vivo", "details": "for Mean tumour size at day 1: prior to start of treatment", "experimental": "The administration took place by intratumoural injection of LTX-315 dissolved in sterile saline.\nThe mice were divided into four groups (see Table 8 below for details). The intratumoural treatment was initiated when the tumours had reached the desired size of approximately 5 mm in diameter (minimum of 20 mm^2).\nThree dose levels of LTX-315, 1 mg (Group 1), 0.5 mg (Group 2) and 0.25 mg (Group 3) per injection, were investigated. The volume was 50 μl for all injections. LTX-315 was dissolved in sterile 0.9% NaCl water solution. This vehicle was used as control (Group 4). All four groups received three injections.\nA caliper was used for tumour size measurements and weighing and physical examination were used as health control."}, "[3]": {"system": "murine A20 B-cell lymphoma", "test": "Adoptive spleen cell transfer, A20 lymphoma model", "type": "in vivo, Balb/c mice", "details": "donors: 1 mg intratumoural once daily for 3 days", "experimental": "[…] Balb/c mice (n=32) were each inoculated with A20 cells (5 million in 50 μL s.c.) on the abdominal surface. Once tumours had reached 20 mm^2 they were injected with LTX-315 (1 mg) injected intratumourally, once daily for 3 days, in a volume of 50 μL. Tumour size (mm^2) and body weight were subsequently monitored and a further injection of LTX-315 was given if any tumour re-growth was observed. Subsequently, mice showing complete tumour regression were sacrificed and used as donors for transfer of splenocytes while naive donor mice were used as controls. Spleens from donor mice were excised and cells isolated. Naive receiver mice were irradiated and divided into 2 groups. Group 1 received isolated splenocytes from cured mice, whereas group 2 received isolated splenocytes from naive mice. Freshly prepared cells were injected (20×106 per 100 μl) via the tail vein. Twenty four hours later receiver mice were inoculated with 5 million murine A20 B-cell lymphoma cells on the abdominal surface as described above. Tumour size and body weight were monitored until the maximum tumour burden of ˜125 mm^2 was reached, or a serious adverse events occurred (i.e. wound formation due to tumour tissue necrosis) at which point mice were sacrificed."}, "[4]": {"system": "HUV-EC-C normal cell line", "type": "cell-based, human", "details": "24 h", "experimental": "(§1) Tumor cells were plated in 96-well flat-bottom microtitration plates (Nunc, Dutscher, Brumath, France) and incubated at 37° C. for 24 hours before treatment in 190 μl of drug-free culture medium supplemented or not with 10% FBS for adherent or suspension growing cell lines, respectively.\n(§2) The adherent cell lines were washed once with 200 μl FBS-free culture medium before treatment. […] top dose of 400 μM (range 4×10^−4 to 4×10^−10 M), with 1% (final concentration) Triton X-100 as positive control and FBS-free culture medium as negative control. The cells (190 μl) were incubated in a 200 μl final volume of FBS-free culture medium containing test substances at 37° C. under 5% CO2.\n(§3) Three independent experiments were performed, each concentration being tested in quadruplicate. Control cells were treated with vehicle alone. At the end of treatments, the cytotoxic activity was evaluated by a MTS assay (see § 3.3.).\n(§4) Like MTT, MTS is bioreduced by cells into a formazan product that is directly soluble in culture medium without processing, unlike MTT.\n(§5) At the end of the cells treatment, 40 μl of a 0.22 μm filtered freshly combined solution of MTS (20 ml at 2 mg/ml, Ref G1111, Batch 235897, Exp March 2009, Promega, Charbonnières, France) and PMS (1 ml at 0.92 mg/ml, Ref P9625, Batch 065K0961, Sigma) in Dulbecco's Phosphate Buffered Saline (DPBS, Ref 17-513Q, Batch 6MB0152, Cambrex), were added in each well. Culture plates were incubated for 2 h at 37° C. Absorbency (OD) were measured at 490 nm in each well using VICTOR^3™ 1420 multilabeled counter (Wallac, PerkinElmer, Courtaboeuf, France).\n(§6) IC50: drug concentration to obtain a 50% inhibition of cell proliferation.\n(§7) The dose-response curves were plotted using XLFit 3 (IDBS, United Kingdom). The IC50 determination values were calculated using the XLFit 3 software from semi-log curves. Individual IC50 determination values as well as mean and SD values were generated."}, "HL-60": {"system": "HL-60", "type": "cell-based, human", "details": "24 h", "experimental": "as §1, §2, §3, §4, §5, §6, §7"}, "[5]": {"test": "Exposure time for cell killing (background statement)", "type": "cell-based"}, "MCF-7/mdr": {"system": "MCF-7/mdr", "test": "MTS cytotoxicity assay, MCF-7/mdr", "type": "cell-based, human", "details": "IC50 resistant / IC50 sensitive line; doxorubicin resistance", "experimental": "as §1\nThe adherent cell lines were washed once with 200 μl FBS-free culture medium before treatment. Tumor cells were incubated for 4 hours with 10 concentrations of compounds in ¼ dilution step with a top dose of 400 μM (range 4×10^−4 to 4×10^−10 M), with 1% (final concentration) Triton X-100 as positive control and FBS-free culture medium as negative control. The cells (190 μl) were incubated in a 200 μl final volume of FBS-free culture medium containing test substances at 37° C. under 5% CO2.\nas §3, §4, §5, §6, §7\nResistance index was calculated using the following formula: […]\nResistance index was calculated for each compound for each couple of sensitive and resistant cell lines. Individual resistance index was calculated when IC50 values of both sensitive and corresponding resistant cell lines were determined within same experiment. In addition, resistance index was also calculated ratio of mean IC50 values obtained during three independent experiments."}, "[6]": {"details": "Group 1: 1 mg intratumoural once daily days 1,2,3"}, "[7]": {"details": "Group 2: 0.5 mg intratumoural once daily days 1,2,3"}, "[8]": {"details": "Group 3: 0.25 mg intratumoural once daily days 1,2,3"}}, "note": "Non-standard residues stand in square brackets, D forms with d. Residues, ends and D or L forms follow the SMILES beside them. Dip = N[C@H](C(=O)O)C(c1ccccc1)c1ccccc1", "data": [{"smiles": "NCCCC[C@H](NC(=O)[C@@H](NC(=O)[C@H](Cc1c[nH]c2ccccc12)NC(=O)[C@H](CCCCN)NC(=O)[C@H](CCCCN)NC(=O)[C@H](Cc1c[nH]c2ccccc12)NC(=O)[C@H](Cc1c[nH]c2ccccc12)NC(=O)[C@H](CCCCN)NC(=O)[C@@H](N)CCCCN)C(c1ccccc1)c1ccccc1)C(N)=O", "note": "[LTX-315, K-K-W-W-K-K-W-Dip-K-NH2] (H-KKWWKKW[Dip]K-NH2)", "values": [{"measurement": "Animals with complete regression after re-inoculation", "setting": "[1]", "result": 2}, {"measurement": "Mice with inhibition of tumour growth after re-inoculation", "setting": "[1]; P<0.01 versus control", "result": 7}, {"measurement": "Anti-tumour effect", "setting": "[2]; 1 mg and 0.5 mg, first period of the study", "result": "strong and rapid anti tumour effect"}, {"measurement": "Mean tumour size on day 4", "setting": "[2]; [6]", "result": 0, "unit": "mm^2"}, {"measurement": "Mean tumour size on day 9", "setting": "[2]; [6]", "result": "3.70 ± 2.40", "unit": "mm^2"}, {"measurement": "Mean tumour size on day 14", "setting": "[2]; [6]", "result": "12.43 ± 7.87", "unit": "mm^2"}, {"measurement": "Mean tumour size at day 1", "setting": "[2]; [6]", "result": "25.82 ± 0.80", "unit": "mm^2"}, {"measurement": "Free of Tumour at end of Follow-Up", "setting": "[2]; Group 1: 1 mg x3, n=7", "result": "42.8% (3/7)"}, {"measurement": "Relapse of Tumour", "setting": "[2]; Group 1: 1 mg x3, n=7", "result": 25, "unit": "%"}, {"measurement": "Tumour Response: complete response", "setting": "[2]; Group 1: 1 mg x3, n=7", "result": "57.2% (4/7)"}, {"measurement": "Tumour Response: no response", "setting": "[2]; Group 1: 1 mg x3, n=7", "result": 0, "unit": "%"}, {"measurement": "Tumour Response: partial response", "setting": "[2]; Group 1: 1 mg x3, n=7", "result": "42.8% (3/7)"}, {"measurement": "Mean tumour size on day 4", "setting": "[2]; [7]", "result": 0, "unit": "mm^2"}, {"measurement": "Mean tumour size on day 9", "setting": "[2]; [7]", "result": "11.41 ± 4.69", "unit": "mm^2"}, {"measurement": "Mean tumour size on day 14", "setting": "[2]; [7]", "result": "61.08 ± 23.84", "unit": "mm^2"}, {"measurement": "Mean tumour size at day 1", "setting": "[2]; [7]", "result": "22.03 ± 0.63", "unit": "mm^2"}, {"measurement": "Free of Tumour at end of Follow-Up", "setting": "[2]; Group 2: 0.5 mg x3, n=7", "result": "28.57% (2/7)"}, {"measurement": "Relapse of Tumour", "setting": "[2]; Group 2: 0.5 mg x3, n=7", "result": "0% (0/2)"}, {"measurement": "Tumour Response: complete response", "setting": "[2]; Group 2: 0.5 mg x3, n=7", "result": "28.57% (2/7)"}, {"measurement": "Tumour Response: no response", "setting": "[2]; Group 2: 0.5 mg x3, n=7", "result": 0, "unit": "%"}, {"measurement": "Tumour Response: partial response", "setting": "[2]; Group 2: 0.5 mg x3, n=7", "result": 71.42, "unit": "%"}, {"measurement": "Anti-tumour effect", "setting": "[2]; Group 3, 0.25 mg/dose, first days", "result": "a small inhibitory effect is observed during the first days"}, {"measurement": "Mean tumour size on day 4", "setting": "[2]; [8]", "result": "20.60 ± 5.71", "unit": "mm^2"}, {"measurement": "Mean tumour size on day 9", "setting": "[2]; [8]", "result": "68.49 ± 12.74", "unit": "mm^2"}, {"measurement": "Mean tumour size on day 14", "setting": "[2]; [8]", "result": "69.42 ± 17.70", "unit": "mm^2"}, {"measurement": "Mean tumour size at day 1", "setting": "[2]; [8]", "result": "21.25 ± 0.64", "unit": "mm^2"}, {"measurement": "Free of Tumour at end of Follow-Up", "setting": "[2]; Group 3: 0.25 mg x3, n=9", "result": 0, "unit": "%"}, {"measurement": "Tumour Response: complete response", "setting": "[2]; Group 3: 0.25 mg x3, n=9", "result": "0% (0/9)"}, {"measurement": "Tumour Response: no response", "setting": "[2]; Group 3: 0.25 mg x3, n=9", "result": 77.77, "unit": "%"}, {"measurement": "Tumour Response: partial response", "setting": "[2]; Group 3: 0.25 mg x3, n=9", "result": 22.22, "unit": "%"}, {"measurement": "Adverse events or toxic effects", "setting": "[2]; all LTX-315 groups, intratumoural", "result": "Except from the wound formation no other adverse events or toxic effects were observed"}, {"measurement": "Treated mice with complete tumour response", "setting": "[2]; optimal dose, Group 1 (1 mg x3)", "result": "3 of 7"}, {"measurement": "Tumour growth in irradiated recipients of splenocytes from LTX-315-cured donors versus naive donors", "setting": "[3]", "result": "Inhibition of tumour growth was observed"}, {"measurement": "IC50", "setting": "[4]", "result": 23, "unit": "µM"}, {"measurement": "IC50", "setting": "HL-60", "result": 2.07, "unit": "µM"}, {"measurement": "Exposure time causing cell death", "setting": "[5]", "result": 30, "unit": "min"}, {"measurement": "Resistance index (RI), MCF-7/mdr", "setting": "MCF-7/mdr", "result": 1.12}]}]}
